Measurements taken from ChEMBL document CHEMBL5241128, “Synthesis of 1-O-acyl- and 1-oxo-kamebanin analogues and their cytotoxic activity” (Bioorg Med Chem Lett, 2023).
pIC50: −log10 of the molar value.

Key:
HL-60 = assay: Cytotoxicity against human HL-60 cells assessed as inhibition of cell growth; assay type: functional, cell-based
HCT-116 = assay: Cytotoxicity against human HCT-116 cells assessed as inhibition of cell growth; assay type: functional, cell-based

| Structure (SMILES) | pIC50 (HL-60) | pIC50 (HCT-116) |
| --- | --- | --- |
| C=C1C(=O)[C@@]23[C@H](O)C[C@@H]4C(C)(C)CC[C@H](OC(=O)C(C)(C)C)[C@@]4(C)[C@@H]2CC[C@@H]1[C@H]3O | 5.55 | 5.37 |
| C=C1C(=O)[C@@]23[C@@H]4OC(C)(C)O[C@@H]2C[C@@H]2C(C)(C)CC[C@H](OC(=O)CCC)[C@@]2(C)[C@@H]3CC[C@@H]14 | 5.14 | 5.41 |
| C=C1C(=O)[C@@]23[C@@H]4OC(C)(C)O[C@@H]2C[C@@H]2C(C)(C)CC[C@H](OC(=O)CC)[C@@]2(C)[C@@H]3CC[C@@H]14 | 5.24 | 5.16 |
| C=C1C(=O)[C@@]23[C@@H]4OC(C)(C)O[C@@H]2C[C@@H]2C(C)(C)CC[C@H](OC(=O)CCCC)[C@@]2(C)[C@@H]3CC[C@@H]14 | 5.11 | 5.00 |
| C=C1C(=O)[C@@]23[C@H](O)C[C@@H]4C(C)(C)CCC(=O)[C@@]4(C)[C@@H]2CC[C@@H]1[C@H]3O | 5.66 | 4.96 |
| C=C1C(=O)[C@@]23[C@H](O)C[C@@H]4C(C)(C)CC[C@H](OC(=O)CCC)[C@@]4(C)[C@@H]2CC[C@@H]1[C@H]3O | 5.21 | 5.38 |
| C=C1C(=O)[C@@]23[C@@H]4OC(C)(C)O[C@@H]2C[C@@H]2C(C)(C)CC[C@H](OC(=O)CCCCC)[C@@]2(C)[C@@H]3CC[C@@H]14 | 5.16 | 5.17 |
| COc1cc([C@@H]2c3cc4c(cc3[C@@H](O[C@@H]3O[C@@H]5CO[C@@H](C)O[C@H]5[C@H](O)[C@H]3O)[C@H]3COC(=O)[C@H]23)OCO4)cc(OC)c1O [ETOPOSIDE] | 4.92 | 4.64 |
| C=C1C(=O)[C@@]23[C@H](O)C[C@@H]4C(C)(C)CC[C@H](OC(=O)CCCCC)[C@@]4(C)[C@@H]2CC[C@@H]1[C@H]3O | 5.25 | 5.40 |
| C=C1C(=O)[C@@]23[C@@H]4OC(C)(C)O[C@@H]2C[C@@H]2C(C)(C)CC[C@H](OC(C)=O)[C@@]2(C)[C@@H]3CC[C@@H]14 | 4.24 | 4.37 |
| C=C1C(=O)[C@@]23[C@@H]4OC(C)(C)O[C@@H]2C[C@@H]2C(C)(C)CCC(=O)[C@@]2(C)[C@@H]3CC[C@@H]14 | 4.44 | 4.11 |
| C=C1C(=O)[C@@]23[C@H](O)C[C@@H]4C(C)(C)CC[C@H](OC(=O)CCCC)[C@@]4(C)[C@@H]2CC[C@@H]1[C@H]3O | 5.70 | 5.38 |
| C=C1C(=O)[C@@]23[C@@H]4OC(C)(C)O[C@@H]2C[C@@H]2C(C)(C)CC[C@H](OC(=O)C(C)(C)C)[C@@]2(C)[C@@H]3CC[C@@H]14 | 4.85 | 4.46 |
| C=C1C(=O)[C@@]23[C@H](O)C[C@@H]4C(C)(C)CC[C@H](OC(=O)CC)[C@@]4(C)[C@@H]2CC[C@@H]1[C@H]3O | 5.23 | 5.01 |
| C=C1C(=O)[C@@]23[C@@H]4OC(C)(C)O[C@@H]2C[C@@H]2C(C)(C)CC[C@H](O)[C@@]2(C)[C@@H]3CC[C@@H]14 | 5.14 | 5.12 |
| C=C1C(=O)[C@@]23[C@H](O)C[C@@H]4C(C)(C)CC[C@H](OC(C)=O)[C@@]4(C)[C@@H]2CC[C@@H]1[C@H]3O | 5.24 | 4.89 |
| C=C1C(=O)[C@@]23[C@H](O)C[C@@H]4C(C)(C)CC[C@H](O)[C@@]4(C)[C@@H]2CC[C@@H]1[C@H]3O [KAMEBANIN] | 5.48 | 4.92 |
